Experimental data as given in article PMC3792958, “Olomoucine II, but Not Purvalanol A, Is Transported by Breast Cancer Resistance Protein (ABCG2) and P-Glycoprotein (ABCB1)” (PLoS ONE, 2013).
Values belong to the compound of their own block, whether it stands above or below them.

What was measured:
ABCG2 [1] = settings: cited from earlier work; for inhibition of ABCG2: in vitro and in situ levels
ABCG2 [2] = test system: ABCG2; parameters: method as in PMID 18841444; settings: in vitro hematoporphyrin transport, Sf9 membrane vesicles; cited from earlier work
[3] = test system: ABCG2-expressing cell lines; settings: combination method of Chou-Talalay; cited from earlier work
MDCKII cells = assay: Generation of sulfated conjugate in MDCKII cells (HPLC/MS); type: in vitro ADME, canine; settings: MDCKII-ABCG2, MDCKII-ABCB1 and MDCKII-par; MS analysis
Protocol: Concentration of CDKi was determined via HPLC/MS analysis. […] Dextran leakage was accepted up to 1% per hour.
In olomoucine II transport experiments, we recorded time-dependent generation of an unknown peak in the fifth minute of HPLC analysis in all three cell lines tested (MDCKII-ABCG2, MDCKII-ABCB1 and MDCKII-par). Based on the MS analysis, the compound was identified as a sulfated conjugate of olomoucine II (Fig. 2). […] On the other hand, the amount of sulfated metabolite increased with time and caused remarkable distortion of the results of parent compound. Therefore, when analyzing the data of unconjugated olomoucine II, the time interval was shortened to 2 hours in order to reduce the misrepresenting effect of sulfated olomoucine II. Considering ionic nature of sulfated olomoucine II, it is obvious that this compound cannot escape from the cells via passive diffusion but must utilize special transport system(s). Relative quantification of olomoucine II sulfate allowed us to describe its pharmacokinetic behavior in all MDCKII cell sublines.
Figure 2 Mass spectra of an unknown peak eluted in the fifth minute of HPLC analysis of olomoucine II transport. (A) spectrum in positive mode, (B) MS^2 in positive mode, (C) negative mode, (D) MS^2 in negative mode. […]

in vitro = settings: dog, MDCK
Protocol: (§1) ABCG2- and ABCB1-transduced MDCKII sublines (MDCKII-ABCG2 and MDCKII-ABCB1), which stably express ABCG2 and ABCB1 protein, respectively, were purchased from dr. Alfred Schinkeĺs lab (The Netherlands Cancer Institute, Amsterdam, The Netherlands). These transduced sublines as well as the parental MDCKII cell line (MDCKII-par) were routinely cultured in complete Dulbecco’s modified Eagle’s medium with 10% fetal bovine serum. 100 U/ml penicillin and 100 µg/ml streptomycin were used while growing the cells on the membrane inserts. All cells were routinely cultivated in antibiotic-free medium and periodically tested for mycoplasma contamination. […] Cells from passages 15 to 25 were used in all in vitro studies. Dimethyl sulfoxide was applied as a CDKi solvent in concentrations not exceeding 0.1%.
(§2) MDCKII-ABCG2, MDCKII-ABCB1 or MDCKII-par cells were seeded at a density of 1×10^6 per insert 72 h before experiment. The medium was replaced after 24 and 48 h of cultivation. One hour before the start of the experiment, the cells were washed with prewarmed 1×phospate buffered saline on both the apical and basal sides and Opti-MEM with or without fumitremorgin C or LY335979 was added into both compartments. At time 0, the experiment was started by replacing the medium with fresh Opti-MEM with or without CDKi and fumitremorgin C or LY335979 in the appropriate chamber. Samples were taken every 2 h from the opposite chambers for the duration of the experiment (6 h). Concentration of CDKi was determined via HPLC/MS analysis. Immediately after the experiment, cellular monolayer integrity was examined using fluorescein isothiocyanate labeled dextran (MW = 40 kDa). Dextran leakage was accepted up to 1% per hour.
(§3) HPLC/MS analysis using LC 20A Prominence chromatographic system (Shimadzu, Kyoto, Japan) coupled with LCQ Max advantage mass spectrometer (Thermo Finnigan, San Jose, CA, USA) was used for the quantification of olomoucine II and purvalanol A. The separation was performed on a Hypersil GOLD C18 column (100 × 4.6 mm, particle size 3 µm) protected with an OPTI-GUARD 1 mm guard column C18. The mobile phase flow rate was 0.35 ml/min and the column temperature was maintained at 40°C. The data were processed using Xcalibur 2.0 software (Thermo Finnigan, San Jose, CA, USA).
(§4) The detector was set as follows: spray voltage of 4.5 kV, capillary temperature of 320°C, sheet and auxiliary gas flows of 30 and 12 arbitrary units, respectively. […] The collision energies were 38% and 40% for olomoucine II and IS, respectively. […] The sample stability was evaluated within 94 h.
as §4, with “5.5” for “4.5”, “340°C,” for “320°C,”, “28” for “30”, “13” for “12”, “purvalanol A” for “olomoucine II”, “hours.” for “h.”
(§5) Transport of olomoucine II by ABCG2 and ABCB1 was tested in vitro using transport assays across the polarized monolayers of MDCKII-ABCG2 and MDCKII-ABCB1 cells, respectively. In this method, the transport across the monolayer is greatly accelerated in the basolateral to apical direction, when the compound is a substrate of examined transporter. Based on our previous studies, three olomoucine II concentrations (100 nM, 1 µM and 10 µM) were tested and transport ratios (r; olomoucine II transport in basolateral to apical direction divided by transport in apical to basolateral direction) 2 h after olomoucine II addition were calculated.

ABCG2 [4] = assay: in vitro; settings: human
Protocol: as §1, §2, §3, §4
as §4, with “5.5” for “4.5”, “340°C,” for “320°C,”, “28” for “30”, “13” for “12”, “purvalanol A” for “olomoucine II”, “hours.” for “h.”
as §5

ABCG2 [5] = molecular target: T1, ABCG2 (Homo sapiens, UniProt Q9UNQ0); assay: in vitro
T1 sequence (Q9UNQ0 1-655): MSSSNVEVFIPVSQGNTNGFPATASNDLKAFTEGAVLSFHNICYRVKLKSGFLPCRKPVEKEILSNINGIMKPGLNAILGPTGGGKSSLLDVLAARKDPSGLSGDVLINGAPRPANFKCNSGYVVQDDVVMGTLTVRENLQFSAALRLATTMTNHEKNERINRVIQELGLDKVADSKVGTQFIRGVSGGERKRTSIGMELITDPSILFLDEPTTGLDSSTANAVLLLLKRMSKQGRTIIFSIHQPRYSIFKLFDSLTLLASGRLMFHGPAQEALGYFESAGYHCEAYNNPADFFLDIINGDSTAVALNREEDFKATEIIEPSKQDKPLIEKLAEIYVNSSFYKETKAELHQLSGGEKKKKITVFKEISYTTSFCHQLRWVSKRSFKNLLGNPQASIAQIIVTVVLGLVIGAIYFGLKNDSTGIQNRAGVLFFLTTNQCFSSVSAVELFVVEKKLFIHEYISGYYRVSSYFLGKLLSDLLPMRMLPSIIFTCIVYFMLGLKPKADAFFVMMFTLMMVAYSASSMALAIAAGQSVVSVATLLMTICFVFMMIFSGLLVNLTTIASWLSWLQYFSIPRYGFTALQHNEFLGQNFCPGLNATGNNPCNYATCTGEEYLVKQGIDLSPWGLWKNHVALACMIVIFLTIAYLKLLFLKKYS
Protocol: as §1, §2, §3, §4
as §4, with “5.5” for “4.5”, “340°C,” for “320°C,”, “28” for “30”, “13” for “12”, “purvalanol A” for “olomoucine II”, “hours.” for “h.”
as §5

ABCB1 [6] = molecular target: ABCB1 (Homo sapiens, UniProt P08183); assay: in vitro
Protocol: as §1, §2, §3, §4
as §4, with “5.5” for “4.5”, “340°C,” for “320°C,”, “28” for “30”, “13” for “12”, “purvalanol A” for “olomoucine II”, “hours.” for “h.”
as §5

ABCB1 [7] = assay: in vitro; settings: human
Protocol: as §1, §2, §3, §4
as §4, with “5.5” for “4.5”, “340°C,” for “320°C,”, “28” for “30”, “13” for “12”, “purvalanol A” for “olomoucine II”, “hours.” for “h.”
as §5

MDCKII-par cells = assay: Cellular monolayer transport assay, parental MDCKII-par cells; settings: olomoucine II 100 nM and 1 µM, 2 h, 1 µM LY335979 (endogenous canine Abcb1 inhibitor)
Protocol: as §1, §2, §3, §4
as §4, with “5.5” for “4.5”, “340°C,” for “320°C,”, “28” for “30”, “13” for “12”, “purvalanol A” for “olomoucine II”, “hours.” for “h.”
as §5

[8] = test system: multidrug resistance associated protein 1 (ABCC1); parameters: method as in PMID 20699410; settings: cited from earlier work
[9] = test system: multidrug resistance associated protein 2 (ABCC2); parameters: method as in PMID 20699410; settings: cited from earlier work
ABCG2 [10] = settings: cited from earlier work
ABCB1 [11] = settings: bovine brain microvessel endothelial cell monolayers; cited from earlier work

Chain of ABCB1 (Homo sapiens, UniProt P08183) (P08183 whole entry): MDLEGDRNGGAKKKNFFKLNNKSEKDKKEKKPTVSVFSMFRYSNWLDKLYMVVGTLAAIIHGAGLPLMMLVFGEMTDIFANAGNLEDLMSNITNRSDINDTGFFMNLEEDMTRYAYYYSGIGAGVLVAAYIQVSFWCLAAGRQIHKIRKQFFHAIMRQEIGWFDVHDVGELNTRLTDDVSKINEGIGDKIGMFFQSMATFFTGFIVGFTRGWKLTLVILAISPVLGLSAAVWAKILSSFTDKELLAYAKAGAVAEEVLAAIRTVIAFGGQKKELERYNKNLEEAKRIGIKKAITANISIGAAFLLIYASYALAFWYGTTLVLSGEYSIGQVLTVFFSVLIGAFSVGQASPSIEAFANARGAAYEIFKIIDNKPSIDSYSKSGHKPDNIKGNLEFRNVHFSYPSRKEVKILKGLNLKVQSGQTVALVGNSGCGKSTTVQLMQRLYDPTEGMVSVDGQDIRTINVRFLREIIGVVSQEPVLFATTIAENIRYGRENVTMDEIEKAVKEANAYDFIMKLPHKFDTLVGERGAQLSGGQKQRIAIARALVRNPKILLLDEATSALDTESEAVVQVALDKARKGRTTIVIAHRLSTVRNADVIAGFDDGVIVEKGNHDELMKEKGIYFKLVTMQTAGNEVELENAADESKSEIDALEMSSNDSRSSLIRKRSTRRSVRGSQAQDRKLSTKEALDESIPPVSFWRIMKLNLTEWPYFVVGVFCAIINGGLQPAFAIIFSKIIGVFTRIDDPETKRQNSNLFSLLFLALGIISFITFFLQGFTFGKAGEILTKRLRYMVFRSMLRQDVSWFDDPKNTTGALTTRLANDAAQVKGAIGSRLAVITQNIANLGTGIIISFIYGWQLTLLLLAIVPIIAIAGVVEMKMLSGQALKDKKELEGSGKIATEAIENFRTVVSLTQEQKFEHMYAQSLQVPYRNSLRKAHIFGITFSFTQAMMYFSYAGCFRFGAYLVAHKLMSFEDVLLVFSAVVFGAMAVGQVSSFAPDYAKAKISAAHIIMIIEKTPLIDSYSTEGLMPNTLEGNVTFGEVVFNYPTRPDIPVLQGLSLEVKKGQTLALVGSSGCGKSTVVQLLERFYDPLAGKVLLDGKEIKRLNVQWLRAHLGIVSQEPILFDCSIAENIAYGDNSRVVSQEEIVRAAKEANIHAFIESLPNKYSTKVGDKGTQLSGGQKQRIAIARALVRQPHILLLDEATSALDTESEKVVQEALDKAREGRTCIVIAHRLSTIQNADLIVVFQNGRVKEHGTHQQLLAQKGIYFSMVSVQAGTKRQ

- sulfatation in MDCKII cells (MDCKII cells): not subjected to sulfatation
- efflux ratio at 6 h, 1 µM (in vitro): 1.14
- efflux ratio at 6 h, 10 µM (in vitro): 1.05
- efflux ratio at 6 h, 1 µM (ABCG2 [4]): 1.33
- efflux ratio at 6 h, 10 µM (ABCG2 [4]): 1.26
- ABCG2 substrate status (ABCG2 [5]; human): not an ABCG2 substrate
- efflux ratio at 6 h, 1 µM (ABCG2 [5]; human): 1.28
- efflux ratio at 6 h, 10 µM (ABCG2 [5]; human): 1.23
- ABCB1 substrate status (ABCB1 [6]; human, MDCK-MDR1): not an ABCB1 substrate
- efflux ratio at 6 h, 1 µM (ABCB1 [6]; human, MDCK-MDR1): 1.36
- efflux ratio at 6 h, 10 µM (ABCB1 [6]; human, MDCK-MDR1): 1.26
- efflux ratio at 6 h, 1 µM (ABCB1 [7]; MDCK-MDR1): 1.2
- efflux ratio at 6 h, 10 µM (ABCB1 [7]; MDCK-MDR1): 1.18
Structure (SMILES): CC(C)[C@H](CO)Nc1nc(Nc2cccc(Cl)c2)c2ncn(C(C)C)c2n1 [purvalanol A]
- ABCG2 inhibitory potency compared with fumitremorgin C (ABCG2 [1]): comparable or even higher potency than fumitremorgin C
- inhibition of ABCG2 (ABCG2 [1]): inhibition of ABCG2
- ABCG2 inhibition (ABCG2 [2]): ABCG2 inhibition
- potentiation of the antiproliferative effect of mitoxantrone [3]: synergistically potentiate
- transport by placental ABCB1/ABCG2 in perfused rat placenta (placental ABCB1/ABCG2): showed no interactions with these transporters

- transport by placental ABCB1/ABCG2 in perfused rat placenta (placental ABCB1/ABCG2): actively pumped from fetus to mother
- efflux ratio at 2 h, 100 nM (in vitro): 1.45
- efflux ratio at 2 h, 1 µM (in vitro): 1.39
- efflux ratio at 2 h, 10 µM (in vitro): 1.64
- efflux ratio at 2 h, 100 nM (ABCG2 [4]; with fumitremorgin C 5 µM): 1.32
- efflux ratio at 2 h, 1 µM (ABCG2 [4]; with fumitremorgin C 5 µM): 1.21
- efflux ratio at 2 h, 100 nM (ABCG2 [5]; human): 2.27
- efflux ratio at 2 h, 10 µM (ABCG2 [5]; human): 1.29
- ABCG2 substrate status (ABCG2 [5]; in vitro, MDCKII-ABCG2 monolayers): dual substrate of ABCG2 and ABCB1
- transport ratio r (basolateral to apical divided by apical to basolateral) (ABCG2 [5]; olomoucine II 1 µM, 2 h, without inhibitor): 2.31
- asymmetry in transport in MDCKII-ABCB1 cells in comparison with ABCG2 transduced cells (ABCB1 [6]; 100 nM and 1 µM, 2 h): approximately 3 fold
- efflux ratio at 2 h, 100 nM (ABCB1 [6]; human, MDCK-MDR1): 6.45
- efflux ratio at 2 h, 1 µM (ABCB1 [6]; human, MDCK-MDR1): 6.83
- efflux ratio at 2 h, 10 µM (ABCB1 [6]; human, MDCK-MDR1): 2.51
- ABCB1 substrate status (ABCB1 [6]; in vitro, MDCKII-ABCB1 monolayers): substrate of ABCB1
- efflux ratio at 2 h, 100 nM (ABCB1 [7]; MDCK-MDR1, with LY335979 1 µM): 1.48
- efflux ratio at 2 h, 1 µM (ABCB1 [7]; MDCK-MDR1, with LY335979 1 µM): 1.83
Structure (SMILES): CC[C@H](CO)Nc1nc(NCc2ccccc2O)c2ncn(C(C)C)c2n1 [olomoucine II]
- ABCG2 inhibitory potency compared with fumitremorgin C (ABCG2 [1]): comparable or even higher potency than fumitremorgin C
- inhibition of ABCG2 (ABCG2 [1]): inhibition of ABCG2
- potentiation of the antiproliferative effect of mitoxantrone [3]: synergistically potentiate
- sulfatation in MDCKII cells (MDCKII cells): time-dependent generation of a metabolite
- change in r values after adding LY335979 (MDCKII-par cells): did not observe statistically significant changes

Structure (SMILES): CC[C@H](CO)Nc1nc(NCc2ccccc2)c2ncn(C(C)C)c2n1 [roscovitine]
- transport by ABCC1 [8]: not transported
- transport by ABCC2 [9]: not transported
- transport by ABCG2 (ABCG2 [10]): not transported
- inhibition of ABCB1 (ABCB1 [11]): significant inhibition of ABCB1

Structure (SMILES): COc1cc2ncnc(Nc3cccc(O)c3)c2cc1OC [WHI-P180]
- ABCG2 inhibition (ABCG2 [2]): ABCG2 inhibition
